Results on five molecules are retold here after article PMC3285657, “Biophysical Characterization and Membrane Interaction of the Two Fusion Loops of Glycoprotein B from Herpes Simplex Type I Virus” (PLoS ONE, 2012).

Residues, ends and D or L forms follow the SMILES beside them.

The nature of data set [1]: Quenching of tryptophan/tyrosines by acrylamide (Stern-Volmer). The data set is classed as physicochemical. As to conditions: peptide 1 µM; for Ksv (M^−1) in buffer: absence of liposomes, F0/F = 1+Ksv [Q]; for Ksv (M^−1) in LUVs: presence of liposomes, peptide/lipid molar ratio 1/200. The text has this:
The observed changes in the characteristics of the tryptophan/tyrosine emission upon binding of peptides HB168–186 and HB254–270 to lipid vesicles indicate their insertion into the hydrophobic region of the bilayers. We also studied the accessibility of the tryptophan/tyrosine residues of membrane-bound peptides towards acrylamide, a neutral, water-soluble, highly efficient quenching molecule, which is unable to penetrate into the hydrophobic core of the lipid bilayer. The more deeply a tryptophan/tyrosine residue is buried, the less strongly it can be quenched by acrylamide. Stern-Volmer plots for the quenching of tryptophan by acrylamide, recorded in the absence and presence of lipid vesicles, are depicted in Figure 6. Fluorescence of tryptophan/tyrosine decreased in a concentration-dependent manner by the addition of acrylamide to the peptide solution both in the absence and presence of liposomes, without other effects on the spectra. However, we can observe a substantial difference between the two peptides.
Aliquots of a 4 M solution of the water-soluble quencher were added to the solution containing the peptide (1 µM) in the absence or presence of liposomes at a peptide/lipid molar ratio of 1/200. The maximal concentration of acrylamide is 0.2 mmol/ml. Tryptophan fluorescence was measured with an excitation wavelength of 295 nm, to reduce acrylamide absorbance (and the resulting inner filter effect), and emission at a wavelength of 340 nm, to eliminate interference from the Raman band of water and tyrosine fluorescence was measured with an excitation wavelength of 274 nm, and emission at a wavelength of 305. The data were analyzed according to the Stern-Volmer equation [68], F0/F = 1+Ksv [Q], where F0 and F represent the fluorescence intensities in the absence and the presence of the quencher (Q), respectively, and Ksv is the Stern-Volmer quenching constant, which is a measure of the accessibility of tryptophan to acrylamide. […] Accordingly, Ksv is determined by the amount of non-vesicle-associated free peptide as well as the fraction of the peptide residing at the surface of the bilayer.

A short description of data set [2]: Thioflavin T assay for peptide aggregation. It counts as physicochemical. Particulars: for Aggregation state in the presence of DOPC/Chol LUVs (ThT fluorescence) / Aggregation state in aqueous medium (ThT fluorescence): peptide 4 µM, 100 mM NaCl, 10 mM Tris–HCl, 25 µM ThT, pH 7.4, 37°C; for Aggregation state in the presence of DOPC/Chol LUVs (ThT fluorescence): 0.1 mM phospholipid; for Aggregation state in aqueous medium (ThT fluorescence): ex 450 nm / em 482 nm; for Oligomerization in aqueous solution / Oligomerization inside / interacting with the membrane: summary in discussion. As for the experimental part: The peptide's aggregation state in buffer and DOPC/Chol LUVs was assayed using ThT [36], in order to know the possible effects of the peptide aggregation on the membranes. As observed in Figure 4 A–B, the two peptides present a completely different behaviour.
Peptide aggregation was assayed using Thioflavin T (ThT). ThT associates rapidly with aggregated peptides giving rise to a new excitation maximum at 450 nm and an enhanced emission at 482 nm. LUVs in 100 mM NaCl, 10 mM Tris–HCl, 25 µM ThT, pH 7.4 (final phospholipid concentration of 0.1 mM) were titrated with a peptide concentration of 1, 4, 8, 12, 16, 20 µM. Fluorescence was measured before and after the desired amount of peptide was added into the cuvette using a Varian Cary Eclipse fluorescence spectrometer at 37°C. Samples were excited at 450 nm (slit width, 5 nm) and fluorescence emission was recorded at 482 nm (slit width, 5 nm). Aggregation was quantified according to the equation, %A = (Ff−F0)/(Fmax−F0)×100, where Ff is the value of fluorescence after peptide addition, F0 the initial fluorescence in the absence of peptide and Fmax is the fluorescence maximum obtained immediately after peptide addition. Kinetic data were obtained at a concentration of 4 µM.

A short description of data set [3]: Lipid mixing assay (NBD-PE/Rho-PE resonance energy transfer). As to conditions: 0.1 mM lipid, 37°C. As for the experimental part: To investigate the fusogenicity of gB peptides, NBD and Rho labelled PE were used as the donor and acceptor of fluorescence energy transfer. A population of LUVs labelled with both was mixed with a population of unlabelled LUVs and increasing amounts of peptides were added. […] The dependence of the extent of lipid mixing on the peptide to lipid molar ratio was analysed. The fusogenic capacity was monitored by measuring their ability to induce lipid mixing of model membranes composed of DOPG, DOPG/Chol (3/2), DOPC, DOPC/Chol (3/2), POPC/Chol (3/2), and POPC/Chol/SM at various ratios (4/1/1, 2/1/1, 1/1/1).
Figure 2 Ability of peptides to induce lipid mixing. Peptide-promoted membrane fusion as determined by lipid mixing; peptide aliquots were added to 0.1 mM LUVs, containing 0.6% NBD and 0.6% Rho. The increase in fluorescence was measured after the addition of peptide aliquots; reduced Triton-X-100 (0.05% v/v) was referred to as 100% of fusion. In figure is reported the dose dependence of lipid mixing at 37°C: panels A and B HB168–186 and HB254–270 in LUVs of different composition; panels C and D HB168–186 and HB254–270 in LUVs mimicking lipid rafts; panel E HB168–186, HB254–270 and shorter versions in DOPC/Chol LUVs; panel F equimolecular mixtures of peptides HB168–186 and HB254–270 in DOPC/Chol (3/2) and POPC/Chol/SM (2/1/1).
Membrane lipid mixing was monitored using the resonance energy transfer assay (RET) reported by Struck et al.. The assay is based on the dilution of the NBD-PE (donor) and Rho-PE (acceptor). Dilution due to membrane mixing results in an increase in NBD-PE fluorescence. The change in donor emission was monitored as aliquots of peptides were added to vesicles. […] The fluorescence scale was calibrated such that the zero level corresponded to the initial residual fluorescence of the labelled vesicles and the 100% value corresponding to complete mixing of all lipids in the system was set by the fluorescence intensity of vesicles upon the addition of Triton X-100 (0.05% v/v) at the same total lipid concentrations of the fusion assay. […]

Data set [4] deals with the molecule itself. In words: thioflavin T fluorescence (peptide aggregation).

`CC[C@H](C)[C@H](NC(=O)CNC(=O)[C@H](CCSC)NC(=O)[C@H](Cc1ccccc1)NC(=O)[C@H](CCC(N)=O)NC(=O)[C@H](CO)NC(=O)[C@H](Cc1ccc(O)cc1)NC(=O)[C@H](CCCNC(=N)N)NC(=O)[C@H](Cc1c[nH]cn1)NC(=O)CNC(=O)[C@H](Cc1ccccc1)NC(=O)[C@H](Cc1c[nH]c2ccccc12)NC(=O)[C@@H](NC(=O)[C@H](CCC(N)=O)NC(=O)[C@H](CO)NC(=O)[C@@H](NC(=O)[C@@H](NC(=O)[C@@H](N)C(C)C)[C@@H](C)O)C(C)C)C(C)C)C(=O)N[C@@H](Cc1ccccc1)C(=O)O` [HB168–186] (H-VTVSQVWFGHRYSQFMGIF-OH): in data set [1], the “Ksv (M^−1) in buffer” value was determined as 8.3 ± 0.2 M⁻¹ and the “Ksv (M^−1) in LUVs” value stood at 6.4 ± 0.4 M⁻¹. Besides, the “Aggregation as a function of peptide concentration (ThT fluorescence)” value in data set [2] (buffer and DOPC/Chol LUVs, high concentrations (titration 1, 4, 8, 12, 16, 20 µM), 37°C) is “aggregated both in the aqueous medium and in LUVs”. In data set [2], the “Aggregation state in the presence of DOPC/Chol LUVs (ThT fluorescence)” value is recorded as “lower aggregation”, the “Aggregation state in aqueous medium (ThT fluorescence)” value is recorded as “already aggregated”, the “Oligomerization in aqueous solution” value is reported as “high tendency to oligomerize” and the “Oligomerization inside / interacting with the membrane” value is listed as “high tendency to oligomerize”. For the same molecule, the “Fusogenic ability (lipid mixing)” value in data set [3] (LUVs of DOPG, DOPG/Chol, DOPC, DOPC/Chol, POPC/Chol, Triton X-100 = 100%, at least three repeats averaged) is reported as “higher fusogenic ability”.
For the molecule `CC(C)[C@H](N)C(=O)N[C@@H](Cc1c[nH]c2ccccc12)C(=O)N[C@@H](Cc1ccccc1)C(=O)NCC(=O)N[C@@H](Cc1c[nH]cn1)C(=O)N[C@@H](CCCNC(=N)N)C(=O)N[C@@H](Cc1ccc(O)cc1)C(=O)O` [HB173–179] (H-VWFGHRY-OH), the “Level of fusion (lipid mixing) in DOPC/Chol LUVs” value in data set [3] was “lower levels of fusion compared to longer sequences”.
Regarding `CC(C)[C@H](NC(=O)[C@H](CCCNC(=N)N)NC(=O)[C@H](CO)NC(=O)[C@@H]1CCCN1C(=O)[C@H](CC(N)=O)NC(=O)[C@@H](N)Cc1ccc(O)cc1)C(=O)N[C@@H](CCC(=O)O)C(=O)N[C@@H](C)C(=O)N[C@@H](Cc1ccccc1)C(=O)N[C@@H](Cc1c[nH]cn1)C(=O)N[C@@H](CCCNC(=N)N)C(=O)N[C@@H](Cc1ccc(O)cc1)C(=O)NCC(=O)N[C@H](C(=O)N[C@H](C(=O)N[C@H](C(=O)N[C@@H](CC(N)=O)C(=O)O)C(C)C)[C@@H](C)O)[C@@H](C)O` [HB254–270] (H-YNPSRVEAFHRYGTTVN-OH), in data set [1], the “Ksv (M^−1) in buffer” value was found to be 71.1 ± 1.1 M⁻¹ and the “Ksv (M^−1) in LUVs” value is 8.5 ± 0.1 M⁻¹. In data set [2], the “Aggregation state in the presence of DOPC/Chol LUVs (ThT fluorescence)” value is given as “not aggregated”, the “Aggregation state in aqueous medium (ThT fluorescence)” value is reported as “not aggregated”, the “Oligomerization in aqueous solution” value is on record as “not oligomerized” and the “Oligomerization inside / interacting with the membrane” value was “able to oligomerize”.
For `CC(C)[C@H](NC(=O)[C@@H](N)CCCNC(=N)N)C(=O)N[C@@H](CCC(=O)O)C(=O)N[C@@H](C)C(=O)N[C@@H](Cc1ccccc1)C(=O)N[C@@H](Cc1c[nH]cn1)C(=O)N[C@@H](CCCNC(=N)N)C(=O)N[C@@H](Cc1ccc(O)cc1)C(=O)O` [HB258–265] (H-RVEAFHRY-OH), the “Level of fusion (lipid mixing) in DOPC/Chol LUVs” value in data set [3] was “lower levels of fusion compared to longer sequences”.

B1: HB168–186 (peptide)
peptide: VTVSQVWFGHRYSQFMGIF
notes: source: synthetic peptide (solid-phase Fmoc method), purified (purity higher than 98%)
As to B1, the binding result in data set [4] is “binds”.
